This passage reports IC50 and melting point results from patent US7115619B2, “N8, N13 -disubstituted quino[4,3,2-kl]acridinium salts as therapeutic agents” (Cancer Research Technology Limited, priority 2000, dated 2006).

Where a name gives a salt, the structure may show the parent alone.

Series [1] has as its target T1, telomerase (extracts from A2780 human ovarian carcinoma cells) (Homo sapiens, UniProt O14746).
T1 construct: extracts from exponentially growing A2780 human ovarian carcinoma cells
In words: Modified telomeric repeat amplification protocol (TRAP) assay, cell-free. Particulars: A2780 cell extract, agent up to 50 μM, 20 min, read-out: telIC50. Format: biochemical. As to the method: The ability of compounds to inhibit telomerase in a cell-free assay was assessed with a modified TRAP assay using extracts from exponentially growing A2780 human ovarian carcinoma cells. The TRAP assay was performed in 2 steps: (a) telomerase-mediated extension of the forward primer (TS: 5′-AATCCGTCGAGCAGAGTT, Oswel Ltd., Southampton, UK) contained in a 40 μL reaction mix comprising TRAP buffer (20 mM Tris-HCl (pH 8.3), 68 mM KCl, 1.5 mM MgCl2, 1 mM EGTA, 0.05% v/v Tween 20), 0.05 μg bovine serum albumin, 50 μM of each deoxynucleotide triphosphate, 0.1 μg TS primer, and 3 μCi of [α-^32P]dCTP (Amersham plc, UK). Protein (0.04 μg) was then incubated with the reaction mix±agent (acid addition and quaternary dimethiodide salts) at final concentrations of up to 50 μM for 20 min at […]. A lysis buffer (no protein) control, heat-inactivated protein control, and 50% protein (0.02 μg) control were included in each assay; and (b) while heating at […]. in a PCR block of a thermal cycler (Hybaid, UK) for 5 min to inactivate telomerase activity, 0.1 μg of reverse CX primer (3′-[…]-5′) and 2 Units of Taq DNA polymerase (“red hot”, Advanced Biotechnologies) were added. A 3-step PCR was then performed: 94° C. for 30 s, 50° C. for 30 s, and […]. for 1 min for 31 cycles. Telomerase-extended PCR products in the presence or absence of compounds were then determined either by electrophoretic separation using 8% w/w acrylamide denaturing gels and analysis by phosphorimaging or autoradiography, or by harvesting on Whatman filters (25 mm glass microfibre) and analysis by liquid scintillation counting.

Series [2] can be described thus: Growth inhibition, sulforhodamine B (SRB) assay, A2780. Format: cell-based. Particulars: human, A2780 ovarian carcinoma cells, 96 hr incubation, read-out: Cytotoxicity IC50 A2780. As to the method:
(§1) Growth inhibition was measured in the following cells lines using the sulforhodamine B (SRB) assay: • A2780: human ovarian carcinoma cell line. • CH1: human ovarian carcinoma cell line. • SKOV-3: human ovarian carcinoma cell line. • A431: human vulval carcinoma cells (short telomeres). • GM847: carcinoma cell line immortalised by ALT pathway.
(§2) Briefly, between 3000 and 6000 cells were seeded into the wells of 96-well microtiter plates and allowed to attach overnight. Test compounds (salts) were dissolved at 500 μM in water and immediately added to wells in quadruplicate at final concentrations of 0.05, 0.25, 1, 5 and 25 μM. Following an incubation period of 96 hr, remaining cells were fixed with ice-cold 10% w/v trichloroacetic acid (30 min) and stained with 0.4% SRB in 1% v/v acetic acid (15 min). Mean absorbance at 540 nm for each drug concentration was expressed as a percentage of the control untreated well absorbance, and IC50 values (concentration required to inhibit cell growth by 50%) were determined for each agent.
A general note: In SRB staining, fixed cells bind dye roughly in proportion to their protein.

The nature of series [3]: Growth inhibition, sulforhodamine B (SRB) assay, CH1. Particulars: human, CH1 ovarian carcinoma cells, 96 hr incubation, read-out: Cytotoxicity IC50 CH1. It is filed as cell-based. The method, then:
as §1, §2

Series [4] in a line: Growth inhibition, sulforhodamine B (SRB) assay, SKOV-3. Format: cell-based. Particulars: human, SKOV-3 ovarian carcinoma cells, 96 hr incubation, read-out: Cytotoxicity IC50 SKOV-3. As to the method: as §1, §2
Series [5] can be described thus: Growth inhibition, sulforhodamine B (SRB) assay, A431. It is filed as cell-based. Conditions: human, A431 vulval carcinoma cells (short telomeres), 96 hr incubation, read-out: Cytotoxicity IC50 A431. As to the method:
as §2, with “Growth inhibition was measured in the following cells lines using the sulforhodamine B (SRB) assay: • A2780: human ovarian carcinoma cell line. • CH1: human ovarian carcinoma cell line. • SKOV-3: human ovarian carcinoma cell line. • A431: human vulval carcinoma cells (short telomeres). • GM847: carcinoma cell line immortalised by ALT pathway. Briefly,” for “Briefly,”

The nature of series [6]: Growth inhibition, sulforhodamine B (SRB) assay, GM847. It is filed as cell-based. Conditions: human, GM847 cells (immortalised by ALT pathway), 96 hr incubation, read-out: Cytotoxicity IC50 GM847. As to the method:
as §2, with “Growth inhibition was measured in the following cells lines using the sulforhodamine B (SRB) assay: • A2780: human ovarian carcinoma cell line. • CH1: human ovarian carcinoma cell line. • SKOV-3: human ovarian carcinoma cell line. • A431: human vulval carcinoma cells (short telomeres). • GM847: carcinoma cell line immortalised by ALT pathway. Briefly,” for “Briefly,”

In general, melting point refers to the temperature, or range, at which the solid turns liquid.

T1 sequence (O14746 whole entry): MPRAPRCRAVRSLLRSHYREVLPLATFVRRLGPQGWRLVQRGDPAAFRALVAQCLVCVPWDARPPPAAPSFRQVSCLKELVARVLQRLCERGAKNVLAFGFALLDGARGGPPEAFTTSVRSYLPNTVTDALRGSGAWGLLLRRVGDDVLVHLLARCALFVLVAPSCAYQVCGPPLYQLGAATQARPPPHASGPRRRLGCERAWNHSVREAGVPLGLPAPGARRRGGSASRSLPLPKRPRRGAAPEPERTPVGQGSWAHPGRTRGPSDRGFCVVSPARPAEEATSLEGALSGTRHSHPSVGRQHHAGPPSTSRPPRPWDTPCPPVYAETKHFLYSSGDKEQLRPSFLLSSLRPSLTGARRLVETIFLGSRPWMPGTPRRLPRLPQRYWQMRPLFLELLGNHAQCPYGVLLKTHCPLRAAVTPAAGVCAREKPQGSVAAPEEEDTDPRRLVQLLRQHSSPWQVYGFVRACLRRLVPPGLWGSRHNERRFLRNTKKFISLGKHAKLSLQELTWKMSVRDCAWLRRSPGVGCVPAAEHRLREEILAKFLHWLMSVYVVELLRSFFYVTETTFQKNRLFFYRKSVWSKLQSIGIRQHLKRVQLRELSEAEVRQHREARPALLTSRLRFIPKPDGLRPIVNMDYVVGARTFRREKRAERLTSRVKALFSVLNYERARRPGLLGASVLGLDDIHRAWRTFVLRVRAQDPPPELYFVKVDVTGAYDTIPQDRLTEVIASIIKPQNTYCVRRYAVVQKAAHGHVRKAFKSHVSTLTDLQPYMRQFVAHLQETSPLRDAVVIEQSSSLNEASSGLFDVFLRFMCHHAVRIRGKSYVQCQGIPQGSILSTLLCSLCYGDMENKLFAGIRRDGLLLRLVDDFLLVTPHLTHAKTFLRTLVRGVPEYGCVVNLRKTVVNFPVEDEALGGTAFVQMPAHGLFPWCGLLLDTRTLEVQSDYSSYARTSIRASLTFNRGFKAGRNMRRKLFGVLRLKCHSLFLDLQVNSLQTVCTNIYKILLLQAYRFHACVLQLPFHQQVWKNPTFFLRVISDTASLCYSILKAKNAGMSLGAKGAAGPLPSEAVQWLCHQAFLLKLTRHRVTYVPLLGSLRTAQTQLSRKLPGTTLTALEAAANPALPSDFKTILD

In the case of `Cc1cc2c3c([n+](C)c4ccccc4c3c1)-c1ccccc1N2C` [RHPS01, 6,8,13-Trimethyl-8H-quino[4,3,2-kl]acridinium methyl sulphate], the IC50 in series [1] turned out to be 0.74 µM. Also, the IC50 at 96 h is 0.9 µM in series [2], 0.37 µM in series [3] and 3.6 µM in series [4].
In the case of `Cc1ccc2c(c1)-c1c3c(cc(C)cc3c3cc(C)ccc3[n+]1C)N2C` (as salt: sulphate) [RHPS03, 3,6,8,11,13-Pentamethyl-8H-quino[4,3,2-kl]acridinium methyl sulphate], the melting point fell in the range of 240 to 242 °C.
On to `COc1cc2c3c([n+](C)c4ccccc4c3c1)-c1ccc(Cl)cc1N2C` [RHPS12, 10-Chloro-8,13-dimethyl-6-methoxy-8H-quino[4,3,2-kl]acridinium iodide], for which the IC50 in series [1] turned out to be 0.28 µM. Also, the IC50 at 96 h in series [3] came out at 0.3 µM; in series [4], 10 µM; in series [5] it was 1 µM; in series [6], 0.4 µM.
Compound `Cc1cc2c3c([n+](C)c4ccccc4c3c1)-c1ccccc1N2C` (as salt: sulphate) [RHPS01, 6,8,13-Trimethyl-8H-quino[4,3,2-kl]acridinium methyl sulphate] registered a melting point of 190 to 192 °C.
Turning to `CC(=O)Oc1cc2c3c([n+](C)c4ccccc4c3c1)-c1ccccc1N2C` [RHPS11, 6-Acetoxy-8,13-dimethyl-8H-quino[4,3,2-kl]acridinium iodide], the IC50 in series [1] stood at 1.7 µM. The IC50 at 96 h was found to be 1.6 µM in series [3], 3.5 µM in series [4], 1.7 µM in series [5] and 17.7 µM in series [6].
As for `Cc1cc2c3c([n+](C)c4ccc(Cl)cc4c3c1)-c1cc(Cl)ccc1N2C` [RHPS02, 3,11-Dichloro-6,8,13-trimethyl-8H-quino[4,3,2-kl]acridinium methylsulfate], the IC50 in series [1] came out at 0.24 µM. The figures for the IC50 at 96 h in series [2], in series [3] and in series [4] were 1.3 µM, 1.4 µM and 9.3 µM, respectively.
Turning to `CN1c2ccccc2-c2c3c1cccc3c1cc(/C=C/C(=O)N3CCOCC3)ccc1[n+]2C` [RHPS16, 8,13-Dimethyl-(E)-3-(3-morpholin-4-yl-3-oxo-propenyl)-8H-quino[4,3,2-kl]acridinium iodide], the IC50 in series [1] came out at 0.37 µM. The IC50 at 96 h is 17.8 µM in series [3], above 25 µM in series [4], 12.5 µM in series [5] and above 25 µM in series [6].
Regarding `COC(=O)CCc1ccc2c(c1)c1cccc3c1c([n+]2C)-c1ccccc1N3C` [RHPS09, 3-(8,13-Dimethyl-8H-quino[4,3,2-kl]acridinium-3-yl)-propionic acid methyl ester iodide], the IC50 in series [1] was 3.02 µM. The IC50 at 96 h was above 25 µM in series [2], 11.5 µM in series [3] and above 25 µM in series [4].
For `CN1c2ccccc2-c2c3c1cccc3c1cc(Cl)ccc1[n+]2C` (as salt: iodide) [RHPS06, 3-Chloro-8,13-dimethyl-8H-quino[4,3,2-kl]acridinium iodide], the melting point is 225 to 227 °C.
Take `COC(=O)Oc1cc2c3c([n+](C)c4ccccc4c3c1)-c1ccccc1N2C` [RHPS13, 6-Methoxycarbonyloxy-8,13-dimethyl-8H-quino[4,3,2-kl]acridinium iodide]: the IC50 in series [1] is 0.57 µM. In addition, the IC50 at 96 h in series [3] amounted to 0.2 µM; in series [4], 1.5 µM; in series [5], 0.4 µM; in series [6], 0.5 µM.
With `COc1cc2c3c([n+](C)c4ccccc4c3c1)-c1ccccc1N2C` [RHPS08, 8,13-Dimethyl-6-methoxy-8H-quino[4,3,2-kl]acridinium iodide], in series [1], the IC50 stood at 0.47 µM. In addition, the IC50 at 96 h in series [2] came out at 0.62 µM; in series [3] it was 0.13 µM; in series [4], 3.6 µM.
The compound `Cc1cc2c3c([n+](C)c4ccc(Cl)cc4c3c1)-c1cc(Cl)ccc1N2C` (as salt: sulfate) [RHPS02, 3,11-Dichloro-6,8,13-trimethyl-8H-quino[4,3,2-kl]acridinium methylsulfate] displayed a melting point of 250 to 252 °C.
As for `CN1c2ccccc2-c2c3c1cccc3c1cc(Cl)ccc1[n+]2C` [RHPS06, 3-Chloro-8,13-dimethyl-8H-quino[4,3,2-kl]acridinium iodide], the IC50 in series [1] came to 0.26 µM. The IC50 at 96 h in series [2] is 1.1 µM; in series [3], 0.5 µM; in series [4] it was 12.5 µM.
The matching figures for `Cc1cc2c3c([n+](C)c4ccc(F)cc4c3c1)-c1cc(F)ccc1N2C` [RHPS04, 3,11-Difluoro-6,8,13-trimethyl-8H-quino[4,3,2-kl]acridinium methyl sulphate]: 0.31 µM, 1.1 µM, 0.5 µM and 23 µM.
With `COC(=O)/C=C/c1ccc2c(c1)c1cccc3c1c([n+]2C)-c1ccccc1N3C` [RHPS15, (E)-3-(8,13-Dimethyl-8H-quino[4,3,2-kl]acridinium-3-yl)-acrylic acid methyl ester iodide], the IC50 in series [1] worked out at 0.19 µM. Moreover, the IC50 at 96 h stood at 2.2 µM in series [3], 19 µM in series [4], 3.2 µM in series [5] and 4.5 µM in series [6].
`COC(=O)/C=C/c1ccc2c(c1)c1cccc3c1c([n+]2C)-c1ccccc1N3C` (as salt: iodide) [RHPS15, (E)-3-(8,13-Dimethyl-8H-quino[4,3,2-kl]acridinium-3-yl)-acrylic acid methyl ester iodide] displayed a melting point of 200 to 202 °C.
Turning to `CN1c2ccccc2-c2c3c1cccc3c1ccccc1[n+]2C` [RHPS05, 8,13-Dimethyl-8H-quino[4,3,2-kl]acridinium iodide], in series [1], the IC50 was 1.55 µM. Further, the IC50 at 96 h turned out to be 1.6 µM in series [2], 1.1 µM in series [3] and 18 µM in series [4].
On the same counts, the results for `Cc1ccc2c(c1)-c1c3c(cc(C)cc3c3cc(C)ccc3[n+]1C)N2C` [RHPS03, 3,6,8,11,13-Pentamethyl-8H-quino[4,3,2-kl]acridinium methyl sulphate] are 0.18 µM, 0.33 µM, 0.29 µM and 0.75 µM.
On the same counts, the results for `CN1c2cc(Cl)ccc2-c2c3c1cccc3c1cc(Cl)ccc1[n+]2C` [RHPS07, 3,10-Dichloro-8,13-dimethyl-8H-quino[4,3,2-kl]acridinium iodide] are 0.94 µM, 14.5 µM, 3.8 µM and above 25 µM.
With `COc1cc2c3c([n+](C)c4ccc(Cl)cc4c3c1)-c1ccccc1N2C` [RHPS10, 3-Chloro-8,13-dimethyl-6-methoxy-8H-quino[4,3,2-kl]acridinium iodide], the IC50 in series [1] was determined as 0.24 µM. In addition, the IC50 at 96 h was determined as 1.1 µM in series [3], 6.3 µM in series [4], 3.2 µM in series [5] and 0.8 µM in series [6].
